The nature of assay [1]: Vasodilatory activity in rabbit coronary artery assessed as inhibition of KCl-induced contraction. It is filed as functional, tissue-based, Oryctolagus cuniculus.
Assay [2] has as its system L5178Y. Nature of the assay: Cytotoxicity against mouse L5178Y cells. It is filed as functional, cell-based.
For assay [3], the system named is L1210. Briefly: Cytotoxicity against mouse L1210 cells. It is filed as functional, cell-based.

≈ marks a conversion by molar mass, not a printed value.

In general, IC50 refers to the concentration that inhibits the measured activity by half.

With `C=C1[C@H](C)CCC[C@]1(C)CC[C@@]1(C)C=Cc2c(O)c(OC)cc(OC)c2O1` [METACHROMIN B], the half-maximal inhibitory concentration (IC50) in assay [1] amounted to 3 µM.
With `COC1=CC(=O)C(O)=C(C/C=C(\C)CC[C@@]2(C)CCC=C(C)[C@H]2C)C1=O` [METACHROMIN C], the IC50 in assay [2] was determined as 0.92 mg/L (≈ 2.57 µM); in assay [3], 2 mg/L (≈ 5.58 µM); in assay [1] it was 3 µM.
Regarding `C=C1[C@H](C)CCC[C@]1(C)CC/C(C)=C/CC1=C(O)C(=O)C=C(OC)C1=O` [METACHROMIN A], the IC50 in assay [1] amounted to 3 µM.

Source of the values: ChEMBL document CHEMBL1147317, “Metachromin C, a new cytotoxic sesquiterpenoid from the Okinawan marine sponge Hippospongia metachromia” (J Nat Prod, 1989).
